Reference: patent US5149714A, “Antidepressants” (Merrell Dow Pharmaceuticals Inc., priority 1990, dated 1992)
Where two headings read alike, the source gives them in different places.

Test system: β-adrenergic receptors
Details: Desipramine 5 mg/kg, i.p.; for [^3 H]-DHA Specifically Bound: mean ± SEM, six animals per group
Method: The number of β-adrenergic receptors in rat cerebral cortical membranes was measured after a 4 day and 14 day course of one of the following treatments:
a) saline control (intraperitoneal injection--i.p.)
c) fluoxetine (10 mg/kg/day, i.p.) or (10 mg/kg bid, i.p.)
Male Sprague-Dawley rats (175-200 g) were assigned randomly to one of the four treatment groups above and were treated as indicated for either 4 or 14 days. The animals were sacrificed 24 hours after their last treatment and cerebral cortical membranes were isolated. These membranes were assayed for β-adrenergic receptor number by the method of Bylund and Snyder [Mol. Pharmacol. 12, 568 (1976)] by measuring the amount of [3H]dihydro-alprenolol ([^3 H]-DHA) bound.

CNCCC(Oc1ccc(C(F)(F)F)cc1)c1ccccc1 (stereo not shown) [Fluoxetine, fluoxetine] was tested, and the “[^3 H]-DHA Specifically Bound, % Control” value (A) 14 days, Fluoxetine 10 mg/kg) was 91 % Control, the “[^3 H]-DHA Specifically Bound” value (A) 14 days, Fluoxetine 10 mg/kg, saline 41.8 ± 1.4, * p < 0.05 vs saline, + P < 0.05 vs Desipramine) was 37.9 ± 1.8 fmol/mg protein and the “[^3 H]-DHA Specifically Bound, % Control” value (B) 4 days, Fluoxetine 10 mg/kg bid) was 95 % Control. The “[^3 H]-DHA Specifically Bound” value (B) 4 days, Fluoxetine 10 mg/kg bid, saline 54.6 ± 3.1, * p < 0.05 vs saline) was 51.8 ± 1.7 fmol/mg protein.
